Laboratory results from patent publication US11832638B2, “N-acyl derivatives of gamma amino-butyric acid and beta alanine as food flavouring compounds” (GIVAUDAN SA, priority 2012, dated 2023).

Tests used:
[1] = Tasting in fish based product (fish sauce)
Experimental: (§1) The following formulations were prepared and tasted by trained panelists.
Salt level pure product between 5-40%
Salt level in application 0.3-1.0%
C18:2-gaba-(0.5 ppm) was added to a 1% diluted fish sauce sauce (0.27% salt).
C18:2-gaba-(0.5 ppm) was added to pure fish sauce (27% salt).

[2] = Tasting in pilaf (cooked rice with flavoured butter); settings: standard cooked rice with 10% of the C18:2-gaba flavoured butter
Experimental: as §1

[3] = Tasting in spreadable cheese ERU; settings: 0.5 PPM in spreadable cheese ERU
Experimental: as §1

Tasting in cheese sauce = settings: 0.5 PPM in cheese sauce 5% fat 1.6% salt
Experimental: as §1
Cheese sauce: 5% fat 1.6% salt

Tasting of baked pizza = settings: 0.5 PPM in the crust and 0.5 PPM in the tomato sauce, baked in hot air oven at 200 degrees Celsius
Source text: Differentiator high temperature 100-250 degrees Celsius in hot air baking process
C18:2-gaba @ 0.5 PPM in the crust and @ 0.5 PPM in the tomato sauce
The pizza was topped off with cheese and baked in a hot air oven @ 200 degrees Celsius

[4] = Tasting in fried potato snack product with cheese seasoning; settings: fried potato base 35% fat
Experimental: Snack Product A snack product consisting of a fried potato base, containing 35% fat and flavored with cheese seasoning containing salt, MSG, dairy, organic acids, sugars, and a flavour formulation. The following compounds were added to the snack product at the indicated levels and the tasting results arc reported: […]

[5] = UHT sweetened banana flavoured milk, different fat levels; settings: banana flavour 0.04%
Experimental: UHT Sweetened Banana Flavoured Milk, With Different Fat Levels
In a UHT milk with 0% and 3% fat sweetened with 4% sucrose by weight, flavoured with proprietary banana flavour dosed at 0.04%. C18:2 gaba was added at 0.25 ppm, 0.5 ppm and 1 ppm.
(§2) Samples were evaluated by expert tasters. Tasters were asked to describe the samples focusing on authentic taste, mouthfeel, fullness, salivation, sweetness, juiciness, richness, long lastingness and fattiness.

[6] = Strawberry flavoured sugar sweetened yoghurt; settings: 2 ppm, 1.5% fat yoghurt base, 8% sucrose, strawberry flavour 0.015%
Source text: Strawberry Flavoured Sugar Sweetened Yoghurt
The base consisted of a 1.5% fat yoghurt base, sweetened with 8% sucrose by weight, flavoured with a proprietary strawberry flavour @ 0.015%.

Soy milk = settings: 2 ppm, 5% sucrose, milk flavor 0.1%
Experimental: In a soy milk sweetened with 5% sucrose by weight, flavoured with a proprietary milk flavour at a dosage of 0.1%, C18:2-gaba was added at 2 ppm
Samples were evaluated by expert tasters. Tasters were asked to describe the samples focusing on authentic taste , mouthfeel, fullness, salivation, sweetness, juiciness, richness, long lastingness and fattiness.

Test in 3 in 1 coffee = settings: 1 ppm, 3-in-1 coffee beverage with sucrose and creamer with fat
Experimental: In a 3 in 1 Coffee beverage from Nestle (market product) sweetened with sucrose and containing creamer with fat C18:2-gaba was added.
as §2
Base is 3-in-1 Coffee beverage (market product) sweetened with sucrose and containing creamer with fat

[7] = Test on Tang powdered soft drink; settings: 0.5 ppm, orange flavoured Tang
Experimental: In an orange flavoured Tang powdered soft drink (market product) sweetened with sucrose plus high intensity sweetener and containing citric acid and C18:2-gaba.
All samples were evaluated by expert tasters. Tasters were asked to describe the samples focusing on authentic taste, mouthfeel & body, enhancement, richness, juiciness, long lastingness, salivation, sweetness, masking off notes of high intensity sweetener
Base is Orange flavoured Tang

[8] = Test on Baileys cream liqueur; settings: 1 ppm
Experimental: Test on Baileys Cream Liqueur:
In Baileys cream liqueur (Market Product) C18:2-gaba was added at 1 ppm.
Samples were evaluated by expert tasters. Tasters were asked to describe the samples focusing on authentic taste, alcohol impact, mouthfeel, fullness, salivation, sweetness, bitterness, richness, long lastingness and fattiness.
Base is Baileys cream liqueur

Test on Breezer Orange = settings: 0.5 ppm
Experimental: Samples were evaluated by expert tasters. Tasters were asked to describe the samples focusing on authentic taste, alcohol impact, juiciness, mouthfeel, fullness, salivation, sweetness, bitterness, richness, long lastingness and fattiness.

[9] = Test on organic acids in a beverage; settings: 1 ppm, water, 7% sucrose
Experimental: Testing With Beverages Containing Organic Acids From 0.01% to 7%
Test 18:2 Gaba on Organic Acids in a Beverage.
In a solution containing water, 7% sucrose by weight, and different organic acids, C18:2-gaba was added at 1 ppm. We observed taste effects on the acid perception upon addition of C18:2-gaba.
Base is water, 7% Sucrose by weight, Tartaric acid at 0.121% by weight
Base is water, 7% Sucrose by weight, Malic acid at 0.1081% by weight
Base is water, 7% Sucrose by weight, Citric acid at 0.1% by weight
Base is water, 7% Sucrose by weight, Fumaric acid at 0.0936% by weight

[10] = Test on menthol fondant (1%); settings: 2 ppm, fondant 65%, sugar syrup 34%, menthol flavour 1%
Source text: Test on Menthol Fondant (1%)
Base is Fondant 65%, sugar syrup 34% and a proprietary menthol flavour at 1%

[11] = Comparison in a strawberry drink; settings: 2 ppm, 7% sucrose, 0.1% citric acid, strawberry flavour 0.015%
Source text: Comparison in a Strawberry Drink
Base is 7% sucrose, 0.1% citric acid, and a proprietary strawberry flavour @0.015%

[12] = Test in a strawberry yoghurt; settings: 2 ppm, 1.5% fat yoghurt, 8% sucrose, strawberry flavour 0.015%
Source text: Test in a Strawberry Yoghurt
Base: Yoghurt 1.5% fat yoghurt, 8% sucrose, proprietary strawberry flavour @ 0.015%

[13] = Test in peach flavoured drink; settings: 1 ppm, water, 8% sugar, 0.1% citric acid, peach flavour 0.05%
Source text: Test in Peach Flavoured Drink:
Base is water, 8% sugar, 0.1% citric acid, and proprietary peach flavour at 0.05%

CCCCC/C=C\C/C=C\CCCCCCCC(=O)NCCCC(=O)O [C18:2-gaba]
tasting result (trained panelists) ([1]; 0.5 ppm in 1% diluted fish sauce (0.27% salt)): stronger in umami, longer lasting and richer
tasting result (trained panelists) ([1]; 0.5 ppm in pure fish sauce (27% salt)): strong in body and mouthfeel, more salty, richer with more rounded fish notes
tasting result (trained panelists) [2]: more mouthfeel, with a lingering creamy authentic butter taste
tasting result (trained panelists) [3]: Full, Salty, cheese bite, more mature
tasting result (trained panelists) (Tasting in cheese sauce): Full, Salty, cheese bite expanding
taste of crust, tomato and aftertaste of pizza (Tasting of baked pizza): less dry, more succulent and the tomato was richer, sweeter and the total lingering aftertaste was very rich and pleasant
tasting result ([4]; 0.5 ppm): increased dairy, cheesy
tasting result ([4]; 1 ppm): Fatty full, cheesy, cheese crust, long lasting
description by expert tasters ([5]; 0.25 ppm, UHT milk 0% fat): fuller banana, more authentic, more sweet
description by expert tasters ([5]; 0.25 ppm, UHT milk 3% fat): more authentic, less estery and more round
description by expert tasters ([5]; 0.5 ppm, UHT milk 0% fat): fuller banana, authentic, creamy and sweet
description by expert tasters ([5]; 0.5 ppm, UHT milk 3% fat): creamy banana
description by expert tasters ([5]; 1 ppm, UHT milk 0% fat): creamy, creamy banana, sweet aftertaste
description by expert tasters ([5]; 1 ppm, UHT milk 3% fat): creamy long lasting and more authentic and more impact
taste description [6]: very creamy and fresh strawberry
description by expert tasters (Soy milk): clean, creamy, good masking of the soy bean taste, creamy and milky
description by expert tasters (Test in 3 in 1 coffee): very nice mouthfeel effect, creamy as if coffee creamer is added, more sweet
description by expert tasters [7]: enhances sweet juicy orange notes, enhanced mouthfeel. Additionally, the off-notes of the high intensity sweetener were suppressed
description by expert tasters [8]: strongly enhanced alcohol effect, more cocoa, very creamy and long lasting aftertaste
description by expert tasters (Test on Breezer Orange): more alcoholic, sweeter, more juicy orange, less soapy
taste effects on the acid perception ([9]; citric acid 0.1% by weight): decreased sharp acidic perception, full body mouthfeel, higher higher mouth watering, and an impression of the juicy notes of citrus fruit (orange, lemon)
taste effects on the acid perception ([9]; fumaric acid 0.0936% by weight): decreased sharp acidic perception, full body mouthfeel effects, higher sweet effects, and an impression of the full notes characteristic of sweet red & vanillic flavor types (vanilla, chocolate, raspberry, cherry, especially benzaldhyde)
taste effects on the acid perception ([9]; malic acid 0.1081% by weight): decreased sharp acidic perception, give fuller body, mouthfeel, higher mouthwatering, and an impression of the flesh and skin notes of fruit (apple)
taste effects on the acid perception ([9]; tartaric acid 0.121% by weight): decreased sharp acidic perception, full body mouthfeel, higher mouthwatering, more immediate (upfront hit), and an impression of the flesh of fruit (grape, apple, banana, pear-like)
taste description [10]: increased menthol impact, stronger cooling more sweet, long lasting, fresh
taste description [11]: fatty mouthfeel, creamy strawberry, fruity and juicy
taste description [12]: creamy, fruity authentic strawberry , stronger strawberry, ripe, long lasting, juicy
taste description [13]: fruity peach, long lasting, juicy and fatty skin like very authentic
